Test results from PMC7026418, “The kinase polypharmacology landscape of clinical PARP inhibitors” (Scientific Reports, 2020).
Like-named read-outs stand apart in the source and are kept apart here. Each block holds one compound with its values, some of them ahead of it.

Assays:
Test in all cases: biochemical
Design in all cases: DiscoveRx KINOMEscan active site-directed competition binding; percent of control kinase bound to immobilised ligand
[1] = target: ACVR2A (Homo sapiens, UniProt P27037)
[2] = target: CAMK1 (Homo sapiens, UniProt Q14012)
[3] = target: CLK4 (Homo sapiens, UniProt Q9HAZ1)
[4] = target: EGFR (Homo sapiens, UniProt P00533)
[5] = target: T1, FLT3(ITD,F691L) (Homo sapiens, UniProt P36888, F691L/ITD)
T1 sequence (P36888 564-993 F691L): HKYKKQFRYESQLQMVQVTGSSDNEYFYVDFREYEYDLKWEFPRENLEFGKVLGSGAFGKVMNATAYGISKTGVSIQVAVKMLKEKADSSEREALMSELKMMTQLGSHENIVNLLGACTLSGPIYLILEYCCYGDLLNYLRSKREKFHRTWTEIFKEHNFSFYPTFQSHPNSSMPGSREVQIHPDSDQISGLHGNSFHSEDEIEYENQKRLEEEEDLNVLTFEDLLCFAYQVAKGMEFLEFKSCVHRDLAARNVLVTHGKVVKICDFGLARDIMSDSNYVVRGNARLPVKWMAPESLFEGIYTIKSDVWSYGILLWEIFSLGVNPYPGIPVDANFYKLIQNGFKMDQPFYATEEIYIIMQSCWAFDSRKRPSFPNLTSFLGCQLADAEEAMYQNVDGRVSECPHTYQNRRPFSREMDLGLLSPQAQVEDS

[6] = target: T2, HASPIN (Homo sapiens, UniProt Q8TF76)
T2 sequence (Q8TF76 1-798): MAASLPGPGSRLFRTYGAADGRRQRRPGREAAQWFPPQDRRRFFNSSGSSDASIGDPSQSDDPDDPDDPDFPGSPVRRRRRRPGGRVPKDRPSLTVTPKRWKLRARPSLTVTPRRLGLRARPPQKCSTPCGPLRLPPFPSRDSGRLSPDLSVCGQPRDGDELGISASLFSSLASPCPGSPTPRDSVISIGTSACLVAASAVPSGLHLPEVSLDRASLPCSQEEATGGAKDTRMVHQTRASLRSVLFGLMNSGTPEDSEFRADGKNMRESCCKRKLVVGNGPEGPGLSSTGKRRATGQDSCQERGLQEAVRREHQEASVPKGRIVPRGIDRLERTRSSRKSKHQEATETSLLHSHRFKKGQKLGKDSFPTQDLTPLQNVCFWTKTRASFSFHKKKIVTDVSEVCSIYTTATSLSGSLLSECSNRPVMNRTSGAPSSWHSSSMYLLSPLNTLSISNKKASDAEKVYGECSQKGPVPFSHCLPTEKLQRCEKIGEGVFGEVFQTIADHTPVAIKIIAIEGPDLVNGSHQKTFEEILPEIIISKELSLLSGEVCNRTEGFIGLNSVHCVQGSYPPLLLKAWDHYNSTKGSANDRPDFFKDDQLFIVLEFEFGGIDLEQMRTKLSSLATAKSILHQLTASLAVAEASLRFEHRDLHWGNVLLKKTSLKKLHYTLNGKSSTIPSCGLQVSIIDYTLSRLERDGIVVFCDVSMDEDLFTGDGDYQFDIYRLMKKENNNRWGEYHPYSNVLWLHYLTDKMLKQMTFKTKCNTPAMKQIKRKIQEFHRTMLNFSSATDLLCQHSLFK

[7] = target: T3, LKB1 (Homo sapiens, UniProt Q15831)
T3 construct: gene STK11
T3 sequence (Q15831 1-433): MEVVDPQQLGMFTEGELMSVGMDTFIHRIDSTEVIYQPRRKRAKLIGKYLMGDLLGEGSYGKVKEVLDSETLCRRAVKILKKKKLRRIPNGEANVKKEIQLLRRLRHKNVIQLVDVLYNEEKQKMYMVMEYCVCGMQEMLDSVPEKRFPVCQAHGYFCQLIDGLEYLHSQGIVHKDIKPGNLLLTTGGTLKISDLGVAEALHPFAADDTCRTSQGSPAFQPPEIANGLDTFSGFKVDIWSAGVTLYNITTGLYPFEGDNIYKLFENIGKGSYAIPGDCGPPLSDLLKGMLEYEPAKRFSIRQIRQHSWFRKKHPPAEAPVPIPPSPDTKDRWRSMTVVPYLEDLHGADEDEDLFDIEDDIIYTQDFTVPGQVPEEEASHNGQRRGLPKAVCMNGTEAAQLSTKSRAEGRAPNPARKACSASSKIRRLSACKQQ

[8] = target: T4, PCTK1 (Homo sapiens, UniProt Q00536)
T4 construct: gene CDK16

[9] = target: T5, PCTK3 (Homo sapiens, UniProt Q07002)
T5 construct: gene CDK18

[10] = target: PLK3 (Homo sapiens, UniProt Q9H4B4)
[11] = target: T6, PYK2 (Homo sapiens, UniProt Q14289)
T6 construct: gene PTK2B

[12] = read-out: Niraparib (MK-4827) / %Ctrl @ 10000nM
[13] = read-out: Rucaparib / %Ctrl @ 10000nM, binding competition, % of control
[14] = read-out: Olaparib / %Ctrl @ 10000nM
[15] = read-out: Talazoparib (BMN 673) / %Ctrl @ 10000nM

Chain of EGFR (P00533 whole entry): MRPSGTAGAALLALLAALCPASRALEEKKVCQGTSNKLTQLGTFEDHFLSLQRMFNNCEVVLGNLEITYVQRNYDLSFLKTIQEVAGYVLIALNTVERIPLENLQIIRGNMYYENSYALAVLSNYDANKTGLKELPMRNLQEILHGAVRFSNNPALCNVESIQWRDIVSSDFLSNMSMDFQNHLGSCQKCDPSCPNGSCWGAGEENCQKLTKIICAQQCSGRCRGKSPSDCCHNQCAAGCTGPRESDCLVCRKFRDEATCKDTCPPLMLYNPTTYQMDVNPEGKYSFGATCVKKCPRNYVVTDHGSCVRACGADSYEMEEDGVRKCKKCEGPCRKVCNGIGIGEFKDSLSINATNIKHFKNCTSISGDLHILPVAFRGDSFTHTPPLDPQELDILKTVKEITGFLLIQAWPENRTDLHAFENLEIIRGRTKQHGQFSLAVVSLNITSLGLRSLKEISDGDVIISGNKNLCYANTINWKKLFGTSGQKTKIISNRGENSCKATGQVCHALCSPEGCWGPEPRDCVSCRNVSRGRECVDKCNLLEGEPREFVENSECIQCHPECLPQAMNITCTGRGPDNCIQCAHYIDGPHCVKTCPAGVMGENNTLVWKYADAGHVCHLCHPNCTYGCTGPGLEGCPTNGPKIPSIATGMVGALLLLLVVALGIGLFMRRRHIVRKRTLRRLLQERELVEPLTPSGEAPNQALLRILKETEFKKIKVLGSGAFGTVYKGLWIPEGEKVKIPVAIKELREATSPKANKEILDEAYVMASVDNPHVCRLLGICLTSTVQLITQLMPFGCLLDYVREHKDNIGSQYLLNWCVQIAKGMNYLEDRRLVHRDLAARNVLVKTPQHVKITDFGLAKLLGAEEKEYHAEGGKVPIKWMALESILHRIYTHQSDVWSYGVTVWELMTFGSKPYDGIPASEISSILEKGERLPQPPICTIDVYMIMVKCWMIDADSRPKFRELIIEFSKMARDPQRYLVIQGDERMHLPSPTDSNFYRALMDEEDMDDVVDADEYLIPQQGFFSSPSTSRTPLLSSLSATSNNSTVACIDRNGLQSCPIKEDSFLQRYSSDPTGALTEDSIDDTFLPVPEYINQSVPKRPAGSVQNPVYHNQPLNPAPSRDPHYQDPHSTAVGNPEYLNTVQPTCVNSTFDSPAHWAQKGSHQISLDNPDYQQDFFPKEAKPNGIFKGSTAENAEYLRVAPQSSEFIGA
T4 sequence (Q00536 whole entry): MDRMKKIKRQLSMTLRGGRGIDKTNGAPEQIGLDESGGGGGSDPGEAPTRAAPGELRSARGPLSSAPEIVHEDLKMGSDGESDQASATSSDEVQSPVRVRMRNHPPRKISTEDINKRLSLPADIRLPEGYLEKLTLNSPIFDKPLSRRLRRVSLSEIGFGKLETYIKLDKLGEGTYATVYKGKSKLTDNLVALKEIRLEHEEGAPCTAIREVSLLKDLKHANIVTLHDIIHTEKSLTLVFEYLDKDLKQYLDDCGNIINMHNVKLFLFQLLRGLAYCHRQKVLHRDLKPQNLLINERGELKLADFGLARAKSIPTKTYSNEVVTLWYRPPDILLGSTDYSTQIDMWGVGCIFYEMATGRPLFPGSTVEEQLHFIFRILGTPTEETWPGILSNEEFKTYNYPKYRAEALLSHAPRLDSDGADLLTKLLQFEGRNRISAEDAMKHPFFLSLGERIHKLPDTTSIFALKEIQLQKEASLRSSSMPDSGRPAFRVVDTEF
Chain of ACVR2A (P27037 whole entry): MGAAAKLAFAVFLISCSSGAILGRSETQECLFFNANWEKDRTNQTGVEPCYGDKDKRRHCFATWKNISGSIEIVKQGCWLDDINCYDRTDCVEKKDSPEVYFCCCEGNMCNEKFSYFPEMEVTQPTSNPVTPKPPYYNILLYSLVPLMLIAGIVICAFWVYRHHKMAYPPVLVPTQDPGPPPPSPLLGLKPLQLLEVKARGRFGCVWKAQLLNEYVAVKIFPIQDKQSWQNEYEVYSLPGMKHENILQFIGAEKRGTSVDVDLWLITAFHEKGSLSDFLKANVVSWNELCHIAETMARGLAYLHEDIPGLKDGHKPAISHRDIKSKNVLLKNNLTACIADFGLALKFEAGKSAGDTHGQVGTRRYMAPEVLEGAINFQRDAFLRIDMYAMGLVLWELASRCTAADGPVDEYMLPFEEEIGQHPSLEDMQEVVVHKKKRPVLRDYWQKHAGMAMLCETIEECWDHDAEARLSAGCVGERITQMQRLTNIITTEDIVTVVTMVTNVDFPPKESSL
Chain of CAMK1 (Q14012 whole entry): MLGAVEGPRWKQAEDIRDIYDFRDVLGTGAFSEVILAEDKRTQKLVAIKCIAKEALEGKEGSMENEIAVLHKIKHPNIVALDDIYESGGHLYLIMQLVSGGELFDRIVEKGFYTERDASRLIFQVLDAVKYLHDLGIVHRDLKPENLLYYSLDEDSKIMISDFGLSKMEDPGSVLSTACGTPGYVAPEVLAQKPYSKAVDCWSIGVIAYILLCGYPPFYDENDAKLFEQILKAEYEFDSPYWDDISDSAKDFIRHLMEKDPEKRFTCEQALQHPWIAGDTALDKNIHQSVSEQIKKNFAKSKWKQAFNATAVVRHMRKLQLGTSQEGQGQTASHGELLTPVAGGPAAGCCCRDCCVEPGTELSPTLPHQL
T6 sequence (Q14289 whole entry): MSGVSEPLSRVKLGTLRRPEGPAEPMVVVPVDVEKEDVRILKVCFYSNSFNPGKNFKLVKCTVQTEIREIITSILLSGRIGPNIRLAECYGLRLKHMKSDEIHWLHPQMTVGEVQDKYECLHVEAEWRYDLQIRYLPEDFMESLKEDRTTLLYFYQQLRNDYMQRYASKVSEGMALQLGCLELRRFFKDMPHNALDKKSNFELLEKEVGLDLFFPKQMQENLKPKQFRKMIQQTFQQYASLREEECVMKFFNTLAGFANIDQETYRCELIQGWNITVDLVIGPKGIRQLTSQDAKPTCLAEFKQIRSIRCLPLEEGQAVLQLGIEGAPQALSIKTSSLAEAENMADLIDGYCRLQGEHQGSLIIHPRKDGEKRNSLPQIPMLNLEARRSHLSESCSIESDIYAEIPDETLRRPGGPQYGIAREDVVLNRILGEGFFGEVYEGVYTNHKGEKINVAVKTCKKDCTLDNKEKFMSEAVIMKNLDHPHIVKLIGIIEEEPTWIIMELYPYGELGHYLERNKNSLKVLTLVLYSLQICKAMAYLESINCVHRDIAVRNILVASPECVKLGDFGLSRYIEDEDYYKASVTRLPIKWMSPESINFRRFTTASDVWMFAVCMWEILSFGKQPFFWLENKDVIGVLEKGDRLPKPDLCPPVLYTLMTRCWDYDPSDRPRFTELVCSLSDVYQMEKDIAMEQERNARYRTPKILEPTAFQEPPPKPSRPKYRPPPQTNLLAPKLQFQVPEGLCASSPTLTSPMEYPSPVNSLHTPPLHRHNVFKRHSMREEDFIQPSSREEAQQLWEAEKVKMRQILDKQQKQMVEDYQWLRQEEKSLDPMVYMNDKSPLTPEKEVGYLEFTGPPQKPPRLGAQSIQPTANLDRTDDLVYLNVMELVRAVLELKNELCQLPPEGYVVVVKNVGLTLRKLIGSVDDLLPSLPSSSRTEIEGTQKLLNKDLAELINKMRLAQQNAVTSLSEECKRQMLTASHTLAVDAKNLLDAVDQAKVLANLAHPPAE
T5 sequence (Q07002 whole entry): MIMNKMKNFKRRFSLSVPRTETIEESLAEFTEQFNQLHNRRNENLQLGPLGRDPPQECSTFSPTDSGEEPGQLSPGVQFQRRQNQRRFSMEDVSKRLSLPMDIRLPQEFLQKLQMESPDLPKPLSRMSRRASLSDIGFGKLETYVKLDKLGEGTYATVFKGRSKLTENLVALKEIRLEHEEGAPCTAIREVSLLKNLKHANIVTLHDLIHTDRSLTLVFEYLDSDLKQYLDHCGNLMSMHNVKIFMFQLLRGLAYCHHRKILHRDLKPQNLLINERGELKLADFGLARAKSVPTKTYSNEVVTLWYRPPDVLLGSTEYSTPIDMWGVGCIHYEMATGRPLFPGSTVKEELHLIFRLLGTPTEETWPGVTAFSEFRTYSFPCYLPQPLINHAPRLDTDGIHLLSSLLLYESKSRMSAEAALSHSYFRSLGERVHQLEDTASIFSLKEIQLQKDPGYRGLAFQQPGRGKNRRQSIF
Chain of PLK3 (Q9H4B4 whole entry): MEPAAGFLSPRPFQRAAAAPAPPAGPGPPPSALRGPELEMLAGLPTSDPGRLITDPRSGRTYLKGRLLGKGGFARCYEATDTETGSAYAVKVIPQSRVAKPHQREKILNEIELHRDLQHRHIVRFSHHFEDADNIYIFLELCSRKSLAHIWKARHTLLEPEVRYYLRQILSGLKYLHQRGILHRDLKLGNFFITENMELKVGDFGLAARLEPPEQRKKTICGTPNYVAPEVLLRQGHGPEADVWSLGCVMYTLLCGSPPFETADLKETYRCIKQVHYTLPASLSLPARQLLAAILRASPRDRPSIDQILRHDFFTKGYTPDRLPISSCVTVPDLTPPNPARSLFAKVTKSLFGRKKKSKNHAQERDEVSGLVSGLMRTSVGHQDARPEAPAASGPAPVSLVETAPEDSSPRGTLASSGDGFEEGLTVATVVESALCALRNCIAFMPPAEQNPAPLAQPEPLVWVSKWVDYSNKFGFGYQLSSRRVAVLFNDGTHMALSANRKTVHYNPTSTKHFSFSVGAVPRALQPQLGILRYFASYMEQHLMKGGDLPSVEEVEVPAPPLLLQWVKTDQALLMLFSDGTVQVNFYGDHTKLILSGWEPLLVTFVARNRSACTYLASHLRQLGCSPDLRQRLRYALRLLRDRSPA

SMILES: NC(=O)c1cccc2cn(-c3ccc([C@@H]4CCCNC4)cc3)nc12 [Niraparib]
percent of control binding at 10 µM [1, 12]: 99%
percent of control binding at 10 µM [2, 12]: 80%
percent of control binding at 10 µM [3, 12]: 52%
percent of control binding at 10 µM [4, 12]: 67%
percent of control binding at 10 µM [5, 12]: 42%
percent of control binding at 10 µM [6, 12]: 2.2%
percent of control binding at 10 µM [7, 12]: 100%
percent of control binding at 10 µM [8, 12]: 47%
percent of control binding at 10 µM [9, 12]: 70%
percent of control binding at 10 µM [10, 12]: 85%
percent of control binding at 10 µM [11, 12]: 86%

percent of control binding at 10 µM [1, 13]: 100%
percent of control binding at 10 µM [2, 13]: 90%
percent of control binding at 10 µM [3, 13]: 40%
percent of control binding at 10 µM [4, 13]: 87%
Rucaparib / %Ctrl @ 10000nM ([5]; binding competition, % of control): 26%
percent of control binding at 10 µM [6, 13]: 9%
percent of control binding at 10 µM [7, 13]: 91%
percent of control binding at 10 µM [8, 13]: 13%
percent of control binding at 10 µM [9, 13]: 69%
percent of control binding at 10 µM [10, 13]: 60%
percent of control binding at 10 µM [11, 13]: 100%
SMILES: CNCc1ccc(-c2[nH]c3cc(F)cc4c3c2CCNC4=O)cc1 [Rucaparib]

percent of control binding at 10 µM [1, 14]: 95%
percent of control binding at 10 µM [2, 14]: 100%
percent of control binding at 10 µM [3, 14]: 92%
percent of control binding at 10 µM [4, 14]: 82%
percent of control binding at 10 µM [5, 14]: 84%
percent of control binding at 10 µM [6, 14]: 72%
percent of control binding at 10 µM [7, 14]: 90%
percent of control binding at 10 µM [8, 14]: 99%
percent of control binding at 10 µM [9, 14]: 100%
percent of control binding at 10 µM [10, 14]: 98%
percent of control binding at 10 µM [11, 14]: 99%
SMILES: O=C(c1cc(Cc2n[nH]c(=O)c3ccccc23)ccc1F)N1CCN(C(=O)C2CC2)CC1 [Olaparib]

percent of control binding at 10 µM [1, 15]: 100%
percent of control binding at 10 µM [2, 15]: 95%
percent of control binding at 10 µM [3, 15]: 100%
percent of control binding at 10 µM [4, 15]: 85%
percent of control binding at 10 µM [5, 15]: 100%
percent of control binding at 10 µM [6, 15]: 100%
percent of control binding at 10 µM [7, 15]: 93%
percent of control binding at 10 µM [8, 15]: 86%
percent of control binding at 10 µM [9, 15]: 99%
percent of control binding at 10 µM [10, 15]: 90%
percent of control binding at 10 µM [11, 15]: 97%
SMILES: Cn1ncnc1[C@H]1c2n[nH]c(=O)c3cc(F)cc(c23)N[C@@H]1c1ccc(F)cc1 [Talazoparib]
